Consider one compound from patent publication US20230364084A1, “METHODS FOR PREVENTING OR TREATING CONDITIONS RELATED TO PIKFYVE ACTIVITY” (The Regents of the University of Michigan, priority 2020, published 2023).

Data set [1] relates to prostate cancer cell lines (VCaP, LNCaP, 22RV1, LNCaP-AR, PC3, DU145). Kind of data set: long-term survival assay (14 days, crystal violet). The following applies: Homo sapiens, 336 h; range across AR positive (VCaP, LNCaP, 22RV1, LNCaP-AR) and AR-negative (PC3, DU145) cell lines, two weeks; read-out: growth inhibitory IC50. The class given is cell-based, human. As for the experimental part: Single cell suspensions were seeded into 96-well plates at a density of 1,000-30,000 cells per well. Long-term survival was determined after 14 days of drug incubation. Viable cells were fixed with 4% formaldehyde and subsequently stained with 1% crystal violet. IC50 was calculated using GraphPad Prism.

The test system of data set [2] is MDA-PCa-146-12 AR-positive PDX. Description: MDA-PCa-146-12 patient-derived xenograft. The class given is in vivo, mouse. The following applies: 30 mg/kg. As for the experimental part:
The University of Texas M.D. Anderson Cancer Center (MDACC) patient-derived xenografts (PDX) series has been previously described^62-64. PDXs were derived from men with CRPC undergoing palliative resections using described protocols^65,66. MDA-PCa-146-12 and 146-10 PDX were derived from a patient initially diagnosed with Gleason 3+4=7 prostate adenocarcinoma with an initial PSA of 10.7 ng/ml. […] PDXs were maintained in male SCID mice by surgically implanting 2 mm^3 tumors coated with 100% Matrigel to both flanks of mice. Once tumors reached 100-200 mm^3 in size, mice were randomized and divided into different treatment groups receiving either 30 mg/kg ESK981 or vehicle (ORA-PLUS) by oral gavage 5 days per week.

In a further data set the test system is DU145 tumors. Description: DU145 xenograft tumor model. Type of data set: in vivo, mouse. The following applies: 30 mg/kg. The method, then:
Four- to six-week old male CB17 severe combined immunodeficiency (SCID) mice were procured from the University of Michigan breeding colony. Subcutaneous tumors were established at both sides of the dorsal flank of mice. Tumors were measured at least biweekly using digital calipers following the formula (π/6) (L×W2), where L=length and W=width of the tumor. At the end of the studies, mice were sacrificed and tumors extracted and weighed. The University of Michigan University Committee on the Use and Care of Animals (UCUCA) approved all in vivo studies. For the VCaP castration-resistant tumor model, 3×10^6 VCaP cells were injected subcutaneously into the dorsal flank on both sides of the mice in serum-free medium with 50% Matrigel (BD Biosciences). Once tumors reached a palpable stage (˜200 mm^3), tumor-bearing mice were castrated. Once tumors grew back to the pre-castration size, mice were randomized and treated with either 30 mg/kg, 60 mg/kg ESK981, or vehicle (ORA-PLUS) by oral gavage 5 days per week. For the DU145 xenograft tumor model, 1×10^6 DU145 cells were injected subcutaneously into the dorsal flank on both sides of the mice in serum-free medium with 50% Matrigel. When tumors reached ˜100 mm^3, tumor-bearing mice were randomized and treated with 30 mg/kg ESK981 or vehicle (ORA-PLUS) by oral gavage 5 days per week.

Data set [3] in a line: toxicity evaluation in mice (body weight, serum chemistry, organ histology). Type of data set: in vivo, mouse. The method, then:
To determine whether ESK981-mediated growth inhibition translated into anti-tumor effects, the efficacy of ESK981 in blocking prostate cancer growth in mouse xenograft models was assessed. VCaP cells were chosen for initial experiments because this cell line harbors the TMPRSS2:ERG gene fusion and AR amplification, both of which are frequent molecular aberrations in patients with advanced CRPC^29. A castration-resistant VCaP tumor-bearing xenograft mouse model was generated to mimic disease progression in human patients (FIG. 3a).
Whole blood was collected using BD Microtainer SST tubes, and serum was isolated by centrifugation at 7000 rpm for 10 minutes. Sera were submitted to the University of Michigan ULAM Pathology Cores for Animal Research for liver and renal chemistry analysis.

In a further data set the test system is VCaP cells. Description: untargeted lipidomic analysis. Conditions: 300 nM, 6 and 24 hours. Type of data set: cell-based, human. As for the experimental part:
Details of sample preparation and identification for untargeted lipidomic profiling have been previously reported^68. The lipids were extracted using a modified Bligh-Dyer method^69. The extraction was carried out using a 2:2:2 volume ratio of water:methanol:dichloromethane at room temperature after spiking internal standard lipids (17:0LPC, 17:0PC, 17:0PE, 17:0PG, 17:0 ceramide, 17:0SM, 17:0PS, 17:0PA, 17:0TG, 17:0MG, d5-DG, d31-TG, and 17.0-20.4 PI). The organic layer was collected and dried completely under nitrogen. The organic dried extract containing lipids was further analyzed by LC-MS-based lipidomics. The dried lipid extracts were injected onto a 1.8-μm particle 50×2.1 mm id Waters Acquity HSS T3 column (Waters, Milford, MA), which was heated to 55° C. […] As controls (QC) to monitor the profiling process, a pool of plasma and test plasma (a small aliquot from all test samples) were extracted and analyzed in tandem with the experimental samples. These controls were incorporated multiple times into the randomization scheme such that sample preparation and analytical variability could be constantly monitored. […] Identified lipids were quantified by normalizing against their respective internal standard. […] The QC samples were mainly used to remove technical outliers and lipid species that were detected below the lipid class-based lower limit of quantification.

Another data set deals with Tie-2 (TEK) (Homo sapiens, UniProt Q02763). Conditions: cited from earlier work.
In another data set the target is PIKfyve (Homo sapiens, UniProt Q9Y2I7). Description: cellular thermal shift assay. The class given is cell-based. The arrangement: endogenous in cells; host or cells: VCaP cells. Conditions: VCaP cells, 1 μM, 2 hours. As for the experimental part: The ability of compounds to interact with, and thereby stabilize the target in intact cells, was analyzed essentially as previously described^60,61. The target engagement of ESK981 to PIKfyve was performed in VCaP cells. Cells were treated with DMSO, ESK981 (1 μM), or apilimod (1 μM) for 2 hours at 37° C. and 5% CO2, and 1×10^6 single cell suspensions were diluted into 50 μl of PBS containing protease inhibitor. Cell suspensions were then incubated in a PCR thermal cycler at various temperatures for 2 cycles of 3 minutes heating followed by 3 minutes cooling at room temperature. Cells were lysed by three cycles of freeze-thawing using liquid nitrogen. 20 μl of the soluble fraction of cell lysates were analyzed by western blot.

Where [4] appears, read: oral gavage 5 days per week, SCID mice.

Sequence of Tie-2 (TEK) (Q02763 23-1124, species assumed): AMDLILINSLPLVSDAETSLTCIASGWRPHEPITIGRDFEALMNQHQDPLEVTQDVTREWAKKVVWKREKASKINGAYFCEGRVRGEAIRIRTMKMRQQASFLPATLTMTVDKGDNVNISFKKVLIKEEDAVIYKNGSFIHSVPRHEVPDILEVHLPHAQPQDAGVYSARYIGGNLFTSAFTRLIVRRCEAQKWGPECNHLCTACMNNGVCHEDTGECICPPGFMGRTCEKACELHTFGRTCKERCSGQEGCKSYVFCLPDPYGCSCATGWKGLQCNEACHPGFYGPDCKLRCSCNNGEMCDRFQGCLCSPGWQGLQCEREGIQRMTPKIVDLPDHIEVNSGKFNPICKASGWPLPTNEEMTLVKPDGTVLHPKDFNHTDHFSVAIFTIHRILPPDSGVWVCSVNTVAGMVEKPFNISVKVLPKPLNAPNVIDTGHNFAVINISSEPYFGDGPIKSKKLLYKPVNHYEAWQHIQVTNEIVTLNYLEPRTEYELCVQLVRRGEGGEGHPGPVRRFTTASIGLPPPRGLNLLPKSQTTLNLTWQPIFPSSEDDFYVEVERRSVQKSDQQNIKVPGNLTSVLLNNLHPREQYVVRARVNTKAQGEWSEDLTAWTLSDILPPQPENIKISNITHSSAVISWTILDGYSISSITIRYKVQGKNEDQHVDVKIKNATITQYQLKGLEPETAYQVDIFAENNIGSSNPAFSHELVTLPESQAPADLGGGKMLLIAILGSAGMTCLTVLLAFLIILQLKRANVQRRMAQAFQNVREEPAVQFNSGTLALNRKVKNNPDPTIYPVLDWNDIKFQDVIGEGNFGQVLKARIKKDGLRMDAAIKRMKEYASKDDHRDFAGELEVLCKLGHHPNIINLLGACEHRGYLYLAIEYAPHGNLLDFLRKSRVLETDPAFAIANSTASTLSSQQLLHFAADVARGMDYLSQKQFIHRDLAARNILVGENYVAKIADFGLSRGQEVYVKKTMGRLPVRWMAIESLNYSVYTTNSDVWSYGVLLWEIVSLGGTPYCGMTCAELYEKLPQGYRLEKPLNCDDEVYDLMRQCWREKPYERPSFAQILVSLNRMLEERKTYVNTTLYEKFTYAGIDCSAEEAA
Sequence of PIKfyve (Q9Y2I7 whole entry): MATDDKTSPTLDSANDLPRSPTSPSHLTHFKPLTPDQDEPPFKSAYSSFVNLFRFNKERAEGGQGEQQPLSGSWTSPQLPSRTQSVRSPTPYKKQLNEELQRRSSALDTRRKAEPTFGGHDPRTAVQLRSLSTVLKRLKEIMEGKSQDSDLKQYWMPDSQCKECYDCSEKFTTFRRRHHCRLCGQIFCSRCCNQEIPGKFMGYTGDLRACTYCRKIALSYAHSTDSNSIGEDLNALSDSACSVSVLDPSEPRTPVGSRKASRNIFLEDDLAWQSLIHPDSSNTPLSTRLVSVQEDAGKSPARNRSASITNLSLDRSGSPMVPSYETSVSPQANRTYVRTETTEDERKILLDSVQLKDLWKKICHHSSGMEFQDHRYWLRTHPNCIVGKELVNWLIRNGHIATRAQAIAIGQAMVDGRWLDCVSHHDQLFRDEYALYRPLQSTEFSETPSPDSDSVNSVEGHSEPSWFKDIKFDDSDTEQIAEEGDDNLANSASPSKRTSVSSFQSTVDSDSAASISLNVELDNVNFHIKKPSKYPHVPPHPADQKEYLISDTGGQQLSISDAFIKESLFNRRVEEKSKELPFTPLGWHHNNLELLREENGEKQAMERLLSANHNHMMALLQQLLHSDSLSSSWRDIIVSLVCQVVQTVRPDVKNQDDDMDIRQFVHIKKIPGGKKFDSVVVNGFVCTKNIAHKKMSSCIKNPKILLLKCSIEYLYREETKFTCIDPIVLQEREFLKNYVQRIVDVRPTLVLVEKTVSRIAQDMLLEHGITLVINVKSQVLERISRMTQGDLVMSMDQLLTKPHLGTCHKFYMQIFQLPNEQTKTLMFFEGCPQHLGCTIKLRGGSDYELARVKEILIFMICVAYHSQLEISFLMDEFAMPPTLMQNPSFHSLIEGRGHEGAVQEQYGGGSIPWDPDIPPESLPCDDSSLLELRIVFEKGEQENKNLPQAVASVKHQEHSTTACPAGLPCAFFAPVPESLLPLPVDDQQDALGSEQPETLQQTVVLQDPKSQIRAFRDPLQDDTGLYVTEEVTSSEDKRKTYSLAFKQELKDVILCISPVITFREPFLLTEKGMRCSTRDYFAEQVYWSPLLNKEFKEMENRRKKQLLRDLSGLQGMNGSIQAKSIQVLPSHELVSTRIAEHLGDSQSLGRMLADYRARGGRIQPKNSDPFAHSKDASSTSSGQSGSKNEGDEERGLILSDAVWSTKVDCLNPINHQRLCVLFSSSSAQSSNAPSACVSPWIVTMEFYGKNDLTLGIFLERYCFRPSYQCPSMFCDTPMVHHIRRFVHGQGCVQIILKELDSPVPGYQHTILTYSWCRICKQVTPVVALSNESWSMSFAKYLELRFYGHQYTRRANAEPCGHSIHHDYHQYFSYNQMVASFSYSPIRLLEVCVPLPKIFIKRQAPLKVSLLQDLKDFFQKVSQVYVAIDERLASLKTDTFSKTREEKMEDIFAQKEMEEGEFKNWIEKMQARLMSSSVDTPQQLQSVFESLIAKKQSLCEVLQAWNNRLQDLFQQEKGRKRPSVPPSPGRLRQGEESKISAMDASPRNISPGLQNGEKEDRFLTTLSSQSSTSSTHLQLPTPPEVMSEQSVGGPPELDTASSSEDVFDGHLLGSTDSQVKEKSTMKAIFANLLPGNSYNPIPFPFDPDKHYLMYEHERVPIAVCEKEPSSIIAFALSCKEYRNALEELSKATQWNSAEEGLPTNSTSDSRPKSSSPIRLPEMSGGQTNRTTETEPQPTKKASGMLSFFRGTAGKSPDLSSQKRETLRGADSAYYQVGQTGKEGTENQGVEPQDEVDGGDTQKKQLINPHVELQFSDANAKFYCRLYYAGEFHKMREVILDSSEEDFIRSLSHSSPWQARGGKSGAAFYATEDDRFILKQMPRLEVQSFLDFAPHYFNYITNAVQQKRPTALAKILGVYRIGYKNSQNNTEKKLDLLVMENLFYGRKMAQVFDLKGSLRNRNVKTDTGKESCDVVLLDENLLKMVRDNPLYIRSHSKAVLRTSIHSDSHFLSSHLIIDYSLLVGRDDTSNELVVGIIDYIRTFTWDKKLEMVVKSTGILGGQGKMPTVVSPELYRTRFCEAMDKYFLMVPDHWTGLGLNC

Consider `CC(C)Cn1c2ccc(Nc3ncccn3)cc2c2c3c(c4c(c21)CCc1nn(C)cc1-4)C(=O)NC3` [ESK981, 13-isobutyl-4-methyl-10-(pyrimidin-2-ylamino)-1,2,4,7,8,13-hexahydro-6H-indazolo[5,4-a]pyrrolo[3,4-c]carbazol-6-one], for which, in data set [1], the IC50 (commonly the concentration that gives 50% inhibition) fell in the range of 35 to 192 nM. Moreover, the tumor weights result (in data set [2]; with DU145 tumors) was “significant decreases in tumor weights” each time. The tumor growth result (in data set [2] (setting [4]); in the data set with DU145 tumors (setting [4])) was “Significant inhibition of tumor growth” throughout. Besides, the “tissue vacuolization in major organs” value in data set [3] (H&E staining of organs of ESK981-treated mice) was “no major organs were found to have the same tissue vacuolization morphology”. Besides, the body weight loss result in data set [3] (VCaP tumor-bearing mice) was “within the range of tolerance”. In addition, in data set [3] (body weight, liver and kidney serum chemistry, histology of major organs), the tolerability in mice result is recorded as “well-tolerated”. Also, the major lipid changed result with VCaP cells is listed as “phosphatidylethanolamine (PE) was the major lipid increased”. Besides, the activity against kinase entry on Tie-2 (TEK) is listed as “potent activity”. Moreover, the “cellular target engagement on PIKfyve” value at PIKfyve is recorded as “confirmed”.
